The results in this text go back to ChEMBL document CHEMBL1134219, “Gamma-lactone-Functionalized antitumoral acetogenins are the most potent inhibitors of mitochondrial complex I” (Bioorg Med Chem Lett, 2001).

Assay [1] addresses Mitochondrial complex I; NADH oxidoreductase (Bos taurus, UniProt P25708+P52505). Put plainly: Inhibition of NADH oxidase activity in sub-mitochondrial particles from bovine heart. The assay is classed as functional.
The species named for assay [2] is Bos taurus. The experiment in a line: Relative NADH oxidase activity compared to Laherradurin and 36-dihydroisorolliniastatin-1. The assay is classed as functional.
The species entered for assay [3] is Bos taurus. Put plainly: Relative inhibition of NADH-ubiquinone oxidoreductase (DB) and NADH oxidase activity. Type of assay: functional.
The species named for assay [4] is Bos taurus. Put plainly: Inhibition of NADH-ubiquinone oxidoreductase using decylubiquinone (DB) acceptor. The assay is classed as functional.
The nature of assay [5]: Potency relative to NADH oxidase activity of and 36-dihydroisorolliniastatin-1.
Assay [6] is described as follows: Potency relative to NADH oxidase activity of Laherradurin.

Chain of Mitochondrial complex I; NADH oxidoreductase (P25708 21-464 limits assumed, other chains not shown): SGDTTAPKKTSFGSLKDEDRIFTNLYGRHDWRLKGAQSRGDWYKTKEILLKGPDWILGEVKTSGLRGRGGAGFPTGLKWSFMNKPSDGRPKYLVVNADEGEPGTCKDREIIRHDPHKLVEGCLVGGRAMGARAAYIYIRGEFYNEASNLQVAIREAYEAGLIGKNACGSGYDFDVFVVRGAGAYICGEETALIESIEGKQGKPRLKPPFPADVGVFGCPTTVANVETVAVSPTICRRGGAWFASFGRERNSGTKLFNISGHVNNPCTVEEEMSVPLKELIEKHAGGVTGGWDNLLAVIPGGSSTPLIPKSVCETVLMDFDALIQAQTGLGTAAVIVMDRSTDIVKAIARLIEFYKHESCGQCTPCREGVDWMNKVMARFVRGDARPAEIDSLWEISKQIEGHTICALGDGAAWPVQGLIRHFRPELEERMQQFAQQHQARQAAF

With `CCCCCCCCCC[C@@H](O)[C@@H]1CC[C@@H]([C@@H](O)CC[C@H](O)[C@@H]2CC[C@@H](CCCCCCC[C@@H](O)CC3(O)C(=O)O[C@H](C)[C@H]3O)O2)O1` (single isomer, unassigned), the 50% inhibitory concentration (IC50) (usually the point on the concentration scale where inhibition reaches its midpoint) in assay [1] came to 8.47 nM; in the assay listed under Bos taurus [4], 38.3 nM. In the assay listed under Bos taurus [2], this compound displayed a Relative potency of 47.1. Besides, the Ratio in the assay filed under Bos taurus [3] is recorded as 4.6.

With `CCCCCCCCCC[C@H](O)[C@H]1CC[C@@H]([C@@H]2CC[C@H]([C@H](O)CCCCCCCCCC[C@@H](O)CC3C[C@H](C)OC3=O)O2)O1` (stereo not given in full), the half-maximal inhibitory concentration (IC50) was found to be 0.43 nM in assay [1] and 0.57 nM in the assay filed under Bos taurus [4]. The Relative potency in the assay listed under Bos taurus [2] is 2.4. The Ratio in the assay listed under Bos taurus [3] stood at 1.3.

Consider `CCCCCCCCCC[C@H](O)[C@H]1CC[C@H]([C@H]2CC[C@H]([C@H](O)CCCCCCCCCCCCC3C(=O)O[C@@H](C)[C@@H]3O)O2)O1` (stereo not given in full) [LAHERRADURIN], for which the results for the IC50 (in assay [1]; in the assay filed under Bos taurus [4]) were 0.18 nM and 0.29 nM, respectively. This compound also showed a Relative potency in assay [5] of 1. The Ratio in the assay filed under Bos taurus [3] came to 1.6.

`CCCCCCCCCC[C@H](O)[C@H]1CC[C@@H]([C@@H]2CC[C@H]([C@H](O)CCCCCCCCCC[C@@H](O)CC3(O)C(=O)O[C@@H](C)[C@H]3O)O2)O1` (single isomer, unassigned): the IC50 in assay [1] came to 0.21 nM; in the assay listed under Bos taurus [4], 0.56 nM. The same compound had a Relative potency in the assay listed under Bos taurus [2] of 1.2. Besides, the Ratio in the assay listed under Bos taurus [3] was 2.7.

Regarding `CCCCCCCCCC[C@@H](O)[C@@H]1CC[C@@H]([C@@H](O)CC[C@H](O)[C@@H]2CC[C@@H](CCCCCCC[C@@H](O)CC3C[C@H](C)OC3=O)O2)O1` (stereo not given in full), the values for the concentration for half-maximal inhibition (IC50) (in assay [1]; in the assay listed under Bos taurus [4]) were 1.22 nM and 3.32 nM, respectively. In the assay listed under Bos taurus [2], the Relative potency was determined as 6.8. Further, the Ratio in the assay filed under Bos taurus [3] was 2.7.

Consider `CCCCCCCCCC[C@@H](O)[C@@H]1CC[C@@H]([C@@H](O)CC[C@H](O)[C@@H]2CC[C@@H](CCCCCCC[C@H]3CC(CC(C)O)C(=O)O3)O2)O1` (stereo not given in full), for which the half-inhibitory concentration (IC50) in assay [1] was 2.48 nM; in the assay filed under Bos taurus [4] it was 4.64 nM. Also, the Relative potency in the assay listed under Bos taurus [2] is recorded as 13.8. For the same compound, the Ratio in the assay listed under Bos taurus [3] stood at 1.9.

`CCCCCCCCCC[C@H](O)[C@H]1CC[C@@H]([C@@H]2CC[C@H]([C@H](O)CCCCCCCCCC[C@H]3CC(CC(C)=O)C(=O)O3)O2)O1` (stereo not given in full): the IC50 in assay [1] was determined as 0.33 nM; in the assay filed under Bos taurus [4], 1.21 nM. The Relative potency in the assay filed under Bos taurus [2] came out at 1.8. The Ratio in the assay filed under Bos taurus [3] is given as 3.7.

With `CCCCCCCCCC[C@@H](O)[C@@H]1CC[C@@H]([C@@H](O)CC[C@H](O)[C@@H]2CC[C@@H](CCCCCCC[C@H]3CC(CC(C)=O)C(=O)O3)O2)O1` (stereo not given in full), the half-inhibitory concentration (IC50) in assay [1] is 0.83 nM; in the assay filed under Bos taurus [4], 2.88 nM. The Relative potency in the assay listed under Bos taurus [2] is given as 4.6. Moreover, the Ratio in the assay listed under Bos taurus [3] turned out to be 3.5.

Regarding `CCCCCCCCCC[C@H](O)[C@H]1CC[C@H]([C@H]2CC[C@H]([C@H](O)CCCCCCCCCCC3C(=O)O[C@@H](C)[C@@H]3O)O2)O1` (stereo not given in full), the IC50 was 0.21 nM in assay [1] and 0.72 nM in the assay filed under Bos taurus [4]. For the same compound, the Relative potency in the assay filed under Bos taurus [2] was found to be 1.2. Moreover, the Ratio in the assay filed under Bos taurus [3] came out at 3.4.

The compound `CCCCCCCCCC[C@H](O)[C@H]1CC[C@@H]([C@@H]2CC[C@H]([C@H](O)CCCCCCCCCC[C@@H](O)CC3=C[C@H](C)OC3=O)O2)O1` [rolliniastatin-1] came in with a Relative potency in the assay filed under Bos taurus [2] of 3.3. For the same compound, the Ratio in the assay listed under Bos taurus [3] is given as 1.2. In the assay filed under Bos taurus [4], this compound gave an IC50 of 0.74 nM.

`CCCCCCCCCC[C@H](O)[C@H]1CC[C@@H]([C@@H]2CC[C@H]([C@H](O)CCCCCCCCCC[C@H]3CC(C/C(C)=N/O)C(=O)O3)O2)O1` (stereo not given in full): the IC50 amounted to 0.23 nM in assay [1] and 0.22 nM in the assay filed under Bos taurus [4]. This compound came in with a Relative potency in the assay listed under Bos taurus [2] of 1.3. The Ratio in the assay listed under Bos taurus [3] worked out at 1.

For `CCCCCCCCCC[C@@H](O)[C@@H]1CC[C@@H]([C@@H](O)CC[C@H](O)[C@@H]2CC[C@@H](CCCCCCC[C@H]3CC(C/C(C)=N/O)C(=O)O3)O2)O1` (stereo not given in full), the results for the concentration for half-maximal inhibition (IC50) (in assay [1]; in the assay listed under Bos taurus [4]) were 0.54 nM and 1.42 nM, respectively. In the assay listed under Bos taurus [2], the Relative potency is listed as 3. For the same compound, in the assay filed under Bos taurus [3], the Ratio was determined as 2.6.

Regarding `CCCCCCCCCC[C@@H](O)[C@@H]1CC[C@@H]([C@@H](O)CC[C@H](O)[C@@H]2CC[C@@H](CCCCCCC[C@@H](O)CC3=C[C@H](C)OC3=O)O2)O1`, the 50% inhibitory concentration (IC50) in assay [1] was determined as 1.84 nM; in the assay filed under Bos taurus [4] it was 5.18 nM. In addition, the Relative potency in the assay listed under Bos taurus [2] is 10.2. In the assay filed under Bos taurus [3], the Ratio was 2.8.

Consider `CCCCCCCCCC[C@H](O)[C@H]1CC[C@@H]([C@@H]2CC[C@H]([C@H](O)CCCCCCCCCC[C@H]3CC(CC(C)O)C(=O)O3)O2)O1` (stereo not given in full), for which the Relative potency in assay [6] was determined as 1. The values for the IC50 (in assay [1]; in the assay listed under Bos taurus [4]) were 0.18 nM and 0.21 nM, respectively. The Ratio in the assay listed under Bos taurus [3] worked out at 1.2.
